Results taken from BindingDB's records for doi:10.1016/S0960-894X(01)80901-X (1993).

Target: Neuromedin-K/NK2 receptor (tachykinin receptor 2), Rattus norvegicus
Test: Tested in vitro to inhibit the binding of [125I]NKA to its receptor in rat duodenum membrane

Ki: 0.51 nM
SMILES: CC(=O)NC1(c2ccccc2)CCN(CC[C@H](CN(C)C(=O)c2ccccc2)c2ccc(Cl)c(Cl)c2)CC1 [N-[(R)-4-(4-Acetylamino-4-phenyl-piperidin-1-yl)-2-(3,4-dichloro-phenyl)-butyl]-N-methyl-benzamide]
